Measurements from patent publication US20250320496A1, “MODULATION OF ABCB11 GENE TRANSCRIPTION USING ANTISENSE OLIGONUCLEOTIDES TARGETING REGULATORY RNAS” (CAMP4 Therapeutics Corporation, priority 2022, published 2025).
Strand notation (5' to 3'): a small letter for the sugar, then the base; units joined by * are phosphorothioate-linked, units joined directly phosphodiester-linked; [ ] holds rarer units or linkages, { } end groups; capitals alone tell only the bases. e = 2'-O-(2-methoxyethyl) (MOE); l = locked nucleic acid (LNA); [5mC] = 5-methylcytosine; d = 2'-deoxy (DNA)

Test system: human ABCB11 mRNA
Assay: ASO treatment of primary human hepatocytes (PHH), ABCB11 mRNA by RT-qPCR normalized to B2M
Type: cell-based
Details: primary human hepatocytes; for ABCB11 mRNA FC (5 μM ASO vs. UNT): normalized to untreated PHHs (UNT); for ABCB11 FC mRNA (5 μM ASO vs. untreated): 5 μM ASO with PO-modifications, normalized to untreated hepatocytes
Method in brief: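 Plated primary human hepatocytes were treated 4 h post-thaw with ASO (e.g., 1.25–10 μM; initial screen 5 μM) in medium containing 0.3 mg/ml Matrigel for 72 hrs. Total RNA was reverse-transcribed and ABCB11 mRNA measured by Taqman RT-qPCR, normalized to B2M, with fold change versus untreated PHHs.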

CO-7097 (eA*e[5mC]*e[5mC]*e[5mC]*l[5mC]*e[5mC]*e[5mC]*eT*e[5mC]*lA*e[5mC]*e[5mC]*eT*eT*lG*eG*eT*eT*e[5mC]*e[5mC]; antisense)
ABCB11 mRNA FC (5 μM ASO vs. UNT): 1.028 fold change

CO-7062 (eT*e[5mC]*lT*eG*lG*eA*lA*eA*lA*eT*lA*eA*lT*eG*l[5mC]*e[5mC]*lT*eT*eT*e[5mC]; antisense)
ABCB11 mRNA FC (5 μM ASO vs. UNT): 1.218 fold change

CO-4502 (antisense eA*eA*eA*eT*eGeT*eT*eG*eG*e[5mC]*e[5mC]e[5mC]*eT*eT*eG*eA*eG*eG*eA*eG)
ABCB11 mRNA FC (5 μM ASO vs. UNT): 1.142 fold change

CO-7187: derivative ASO with additional chemical modifications based on parent ASO CO-4535 (antisense eT*eG*eG*e[5mC]*lG*dT*dT*dA*lT*dT*dA*dA*lT*dT*d[5mC]*eT*lA*e[5mC]*eA*eG)
ABCB11 mRNA FC (5 μM ASO vs. UNT): 1.544 fold change

CO-12752 (antisense eG*eTeG*eA*eG*eGe[5mC]*eA*eT*e[5mC]eA*eG*eG*eTeA*eA*eG*eTeT*e[5mC])
ABCB11 FC mRNA (5 μM ASO vs. untreated): 0.99 fold change

CO-7063 (eT*e[5mC]*lT*eG*eG*lA*eA*eA*lA*eT*eA*lA*eT*eG*l[5mC]*e[5mC]*eT*lT*eT*e[5mC]; antisense)
ABCB11 mRNA FC (5 μM ASO vs. UNT): 1.291 fold change

CO-7152 (antisense eA*e[5mC]*e[5mC]*eT*eT*eA*eG*dG*dA*dG*dG*dA*dT*dT*dA*dT*dT*eT*eA*eA*e[5mC]*e[5mC]*eT*e[5mC])
ABCB11 mRNA FC (5 μM ASO vs. UNT): 1.28 fold change

CO-4493 (antisense eA*eT*eG*eG*eT*eG*eA*eG*eA*eG*eT*eG*eT*eG*eG*eT*eT*e[5mC]*eA*eA)
ABCB11 mRNA FC (5 μM ASO vs. UNT): 1.178 fold change

CO-4512 (antisense eA*eA*e[5mC]*eG*eGeAeAeG*eG*eGeTeT*eAeA*eA*eG*eG*eT*eA*eT)
ABCB11 mRNA FC (5 μM ASO vs. UNT): 1.087 fold change

CO-4047 (antisense eG*e[5mC]*eA*eA*eT*e[5mC]*eT*eT*eT*eT*eA*eT*eA*eT*eT*eG*eA*eG*eG*eG)
ABCB11 mRNA FC (5 μM ASO vs. UNT): 0.676 fold change

CO-7160 (antisense eT*eG*eT*eG*eG*eA*eG*eG*eT*eG*eG*eA*eG*e[5mC]*eA*eA*eA*e[5mC]*eT*eA)
ABCB11 mRNA FC (5 μM ASO vs. UNT): 1.312 fold change

CO-11218 (antisense eG*eTlG*eG*lAeG*l[5mC]*eAlA*eA*l[5mC]eT*lA*eGlG*e[5mC]*lAe[5mC]*eT*eG)
ABCB11 FC mRNA (5 μM ASO vs. untreated): 2.86 fold change

CO-6966 (antisense eA*eT*eG*eA*eA*eT*eG*eG*e[5mC]*eA*eA*eG*eG*eA*eG*eA*eG*eG*eA*eT)
ABCB11 mRNA FC (5 μM ASO vs. UNT): 1.177 fold change

CO-4025 (antisense eA*e[5mC]*eG*e[5mC]*eT*eA*e[5mC]*eA*eA*eT*eA*e[5mC]*eT*eT*eG*eG*eA*eT*eA*eG)
ABCB11 mRNA FC (5 μM ASO vs. UNT): 0.832 fold change

CO-4506 (antisense eT*eG*e[5mC]*eA*eT*eT*eG*e[5mC]*eA*eT*eG*eT*eT*eG*eA*eG*e[5mC]*eT*eG*eG)
ABCB11 mRNA FC (5 μM ASO vs. UNT): 1.169 fold change

CO-7198 (eG*eG*eT*eG*eG*lA*dG*d[5mC]*lA*dA*dA*d[5mC]*dT*lA*dG*dG*l[5mC]*eA*e[5mC]*eT*eG*eA; antisense)
ABCB11 mRNA FC (5 μM ASO vs. UNT): 1.075 fold change

CO-4062 (antisense eG*eA*e[5mC]*e[5mC]*eA*eA*eT*eG*eT*eT*eG*e[5mC]*e[5mC]*eT*eA*eT*eT*eA*eT*eT)
ABCB11 mRNA FC (5 μM ASO vs. UNT): 1.108 fold change

CO-7099 (eA*eT*e[5mC]*eT*eG*eG*eA*eA*eA*eA*eT*eA*eA*eT*eG*e[5mC]*e[5mC]*eT*eT*eT*e[5mC]*eT; antisense)
ABCB11 mRNA FC (5 μM ASO vs. UNT): 0.882 fold change

CO-7186: derivative ASO with additional chemical modifications based on parent ASO CO-4535 (antisense eT*eG*eG*l[5mC]*eG*dT*dT*lA*dT*dT*dA*lA*dT*dT*d[5mC]*lT*eA*e[5mC]*eA*eG)
ABCB11 mRNA FC (5 μM ASO vs. UNT): 1.85 fold change

CO-7109 (eA*e[5mC]*eA*eT*eT*lT*dA*dG*lA*dG*dA*d[5mC]*dA*lA*dA*dG*lA*eA*eT*e[5mC]*eG*e[5mC]; antisense)
ABCB11 mRNA FC (5 μM ASO vs. UNT): 1.043 fold change

CO-6979 (antisense eG*eT*eG*eA*eG*dG*d[5mC]*dA*dT*d[5mC]*dA*dG*dG*dT*dA*eA*eG*eT*eT*e[5mC])
ABCB11 mRNA FC (5 μM ASO vs. UNT): 1.201 fold change

CO-7040 (antisense eA*eA*eG*eA*eG*eG*eA*eA*eA*eG*eA*eA*e[5mC]*eT*eG*eG*e[5mC]*e[5mC]*eG*eG)
ABCB11 mRNA FC (5 μM ASO vs. UNT): 1.267 fold change

CO-6988 (antisense eT*eG*eG*lA*eT*lG*eT*lA*eG*lA*eT*lG*eA*lA*eT*lG*eG*l[5mC]*eA*eA)
ABCB11 mRNA FC (5 μM ASO vs. UNT): 1.093 fold change

CO-7018 (antisense eA*eA*eG*eT*eG*eA*eG*eG*e[5mC]*eA*eT*e[5mC]*eA*eG*eG*eT*eA*eA*eG*eT*eT*e[5mC]*e[5mC]*eT)
ABCB11 mRNA FC (5 μM ASO vs. UNT): 1.249 fold change

CO-6671 (antisense eT*eT*e[5mC]*eT*eG*eT*eA*eG*eT*eT*eT*eA*eG*eT*eT*eG*eA*e[5mC]*eT*eG)
ABCB11 mRNA FC (5 μM ASO vs. UNT): 1.163 fold change

CO-7038 (antisense eA*eA*e[5mC]*eT*eG*eT*eA*e[5mC]*eA*eT*eT*eT*eA*eG*eA*eG*eA*e[5mC]*eA*eA)
ABCB11 mRNA FC (5 μM ASO vs. UNT): 1.189 fold change

CO-7034 (antisense eT*eT*eA*eG*eA*eG*eA*e[5mC]*eA*eA*eA*eG*eA*eA*eT*e[5mC]*eG*e[5mC]*eT*eG)
ABCB11 mRNA FC (5 μM ASO vs. UNT): 1.097 fold change

CO-6983 (antisense eA*eG*eA*eA*eG*eA*e[5mC]*eA*eG*eA*eA*eG*eT*eG*eA*eG*eG*e[5mC]*eA*eT)
ABCB11 mRNA FC (5 μM ASO vs. UNT): 1.065 fold change

CO-6997 (antisense eG*eT*eG*eA*lG*dG*d[5mC]*dA*lT*d[5mC]*dA*dG*lG*dT*dA*eA*lG*eT*eT*e[5mC])
ABCB11 mRNA FC (5 μM ASO vs. UNT): 1.058 fold change

CO-6981 (antisense eA*e[5mC]*eA*eG*eA*eA*eG*eT*eG*eA*eG*eG*e[5mC]*eA*eT*e[5mC]*eA*eG*eG*eT)
ABCB11 mRNA FC (5 μM ASO vs. UNT): 1.164 fold change

CO-11230 (antisense eG*eTlG*eG*eAlG*e[5mC]*eAlA*eA*e[5mC]lT*eA*eGlG*e[5mC]*eAl[5mC]*eT*eG)
ABCB11 FC mRNA (5 μM ASO vs. untreated): 1.63 fold change

CO-12748 (antisense eG*eTeGeAeGeGe[5mC]*eA*eT*e[5mC]*eA*eG*eG*eTeAeAeGeTeT*e[5mC])
ABCB11 FC mRNA (5 μM ASO vs. untreated): 0.91 fold change

CO-11245 (antisense eG*eTeG*eGlA*eGe[5mC]*eAeA*lAe[5mC]*eTeA*eGlG*e[5mC]eA*e[5mC]eT*eG)
ABCB11 FC mRNA (5 μM ASO vs. untreated): 1.59 fold change

CO-7102 (eT*eA*eT*e[5mC]*eT*eG*eG*dA*dA*dA*dA*dT*dA*dA*dT*dG*d[5mC]*e[5mC]*eT*eT*eT*e[5mC]*eT*eA; antisense)
ABCB11 mRNA FC (5 μM ASO vs. UNT): 1.068 fold change

CO-11233 (antisense eG*eTlG*eGeA*lGe[5mC]*eAlA*eAe[5mC]*lTeA*eGlG*e[5mC]eA*l[5mC]eT*eG)
ABCB11 FC mRNA (5 μM ASO vs. untreated): 1.60 fold change

CO-6972 (antisense eA*eA*eA*eT*eG*eG*eG*eT*eG*eT*eG*eG*eA*eT*eG*eT*eA*eG*eA*eT)
ABCB11 mRNA FC (5 μM ASO vs. UNT): 1.207 fold change

CO-7020 (antisense eA*eA*eG*eT*eG*dA*dG*lG*d[5mC]*dA*lT*d[5mC]*dA*lG*dG*dT*lA*dA*dG*eT*eT*e[5mC]*e[5mC]*eT)
ABCB11 mRNA FC (5 μM ASO vs. UNT): 1.133 fold change

CO-7016 (antisense eA*eG*eT*eG*eA*lG*dG*d[5mC]*lA*dT*d[5mC]*dA*dG*lG*dT*dA*lA*eG*eT*eT*e[5mC]*e[5mC])
ABCB11 mRNA FC (5 μM ASO vs. UNT): 1.278 fold change

CO-4495 (antisense eT*eG*eG*eT*eA*eT*e[5mC]*e[5mC]*eA*eT*eT*e[5mC]*eA*e[5mC]*eA*eA*eG*eG*eT*eG)
ABCB11 mRNA FC (5 μM ASO vs. UNT): 1.07 fold change

CO-11201 (antisense eT*eGeTeTeTeTeG*e[5mC]*eT*eT*eG*eG*eT*e[5mC]eAeAeGeAeG*eG)
ABCB11 FC mRNA (5 μM ASO vs. untreated): 0.99 fold change

CO-11217 (antisense eG*eTlG*eG*lA*eGl[5mC]*eA*lA*eAl[5mC]eT*lA*eGlG*e[5mC]*lA*e[5mC]eT*eG)
ABCB11 FC mRNA (5 μM ASO vs. untreated): 2.10 fold change

CO-7047 (antisense eG*eA*eG*eT*eT*eG*eT*eG*eT*eT*eT*eT*eG*e[5mC]*eT*eT*eG*eG*eT*e[5mC])
ABCB11 mRNA FC (5 μM ASO vs. UNT): 1.175 fold change

CO-11214 (antisense eG*eT*lGeG*lA*eG*l[5mC]*eAlA*eA*l[5mC]*eT*lAeG*lG*e[5mC]*lA*e[5mC]eT*eG)
ABCB11 FC mRNA (5 μM ASO vs. untreated): 2.90 fold change

CO-7179: derivative ASO with additional chemical modifications based on parent ASO CO-4529 (antisense eG*eT*lG*eG*lA*eG*l[5mC]*eA*lA*eA*l[5mC]*eT*lA*eG*lG*e[5mC]*lA*e[5mC]*eT*eG)
ABCB11 mRNA FC (5 μM ASO vs. UNT): 2.344 fold change

CO-7193: derivative ASO with additional chemical modifications based on parent ASO CO-4535 (eT*eG*eG*e[5mC]*eG*lT*eT*eA*eT*eT*lA*eA*eT*eT*e[5mC]*lT*eA*e[5mC]*eA*eG)
ABCB11 mRNA FC (5 μM ASO vs. UNT): 1.555 fold change
